Series [1] is described as follows: Human HepG2 cell viability dose-response assay. The format is toxicity, cell-based.
Series [2] in a line: Human HepG2 cell viability assay in 384 well format. The format is toxicity, cell-based. The note with it: HepG2 cells, read-out: Inhibition. Further details: dose 125 nL, time 70.5 hour; cytotoxicity at 70.5 h: concentration not given beside the values.

Where “and” joins values, the source holds several entries; their conditions need not be identical. Equal values may be shown once.

Regarding `COc1ccccc1NC(=O)c1ccc(C)n1C`, in series [1], the BOTTOM is -9.133 and -11.57; the HILLSLOPE is 2.979 and 2.832; the TOP worked out at 100; the pXC50 is 5.661 and 5.693. Moreover, the cytotoxicity at 70.5 h in series [2] turned out to be 96%.
For the compound `O=C(CCNCC(F)(F)F)N1CCC(Nc2cccnn2)CC1`, in series [1], the BOTTOM is on record as 0, the HILLSLOPE was determined as 0, the TOP amounted to 0 and the pXC50 is reported as less than 4.53. Moreover, the cytotoxicity at 70.5 h in series [2] was 66.1%.
In series [1], `Cc1noc(CN2CCOC(CN(C)C)C2)n1` (stereo not given) returned a BOTTOM of 0, an HILLSLOPE of 0, a TOP of 0 and a pXC50 of less than 4.53. Further, the cytotoxicity at 70.5 h in series [2] turned out to be 70.1%.
Consider `Cc1noc(C)c1C(=O)N1CCCC1c1c(C)nn(C)c1Cl` (stereo not given), for which, in series [1], the BOTTOM is 0, the HILLSLOPE was 0, the TOP was found to be 0 and the pXC50 is less than 4.53. The cytotoxicity at 70.5 h in series [2] stood at 103%.
In series [1], `CCc1nc(CN(C)C2CCN(Cc3cnc(C)cn3)C2)no1` (stereo not given) came in with a BOTTOM of 0, an HILLSLOPE of 0, a TOP of 0 and a pXC50 of less than 4.53. In addition, the cytotoxicity at 70.5 h in series [2] amounted to 66%.
